Measurements from US20060171911A1, “Diiodomethyl-p-tolylsulfone as a particulate dispersion in a liquid solvent in combination with an anti-dandruff active” (priority 2005, published 2006).

Experiments:
fungal [1] = assay: Anti-fungal activity, dispersed particle form vs. dissolved in an effective solvent
[2] = cited from earlier work
fungal [3] = conditions: cited from earlier work

SMILES: Cc1ccc(S(=O)(=O)C(I)I)cc1 [diiodomethyl-p-tolylsulfone, Benzene, 1-[(diiodomethyl)sulfonyl]-4-methyl-(9CI)]
- activity retained in dispersed particle form vs. dissolved in an effective solvent (fungal [1]): about 100%
- water solubility [2]: less than 5 ppm
- pH range over which effective (fungal [3]): 2-11 pH
